# Measured values: patent US20250340616A1, “NOVEL PEPTIDE MIMICS AND THEIR USE” (STIFTELSEN VECTIS, priority 2021, published 2025)
# Where no end group is shown, it is not given here. [ ]: non-standard residue; d: D form. Cit = NC(=O)NCCC[C@H](N)C(=O)O
# Test system: TCR specific for the citrullinated fibrinogen peptide
# Assay: activation of 58−/− T cell line expressing cit-fib specific TCR by peptide-loaded HLA-DRB1*04:01 monomers (NFAT-GFP reporter, PD1 expression)
# Format: cell-based, human
# Conditions: peptide presented on HLA-DRB1*04:01, 48 h; for TCR-dependent NFAT mediated activation of T cells: GFP reporter, FIG. 3; for TCR-dependent PD1 expression: anti-mouse PD-1 staining, FIG. 4
# Procedure: 58−/− cell line expressing cit-fib specific TCRs in ametrine expressing vector, along with co-expression of human CD4 and GFP as a reporter for NFAT expression.
# HLA-DRB1*04:01 monomeric protein (500 μg/mL) was incubated for 72 h at 37° C. with different versions of fib69-81 peptide (test) and VimX71 peptide (control) in sodium phosphate buffer (1×) containing n-octyl β-D-Glucopyranoside (Sigma-Aldrich, USA) and Pefabloc SC (Sigma-Aldrich, USA), and then stored at 4° C. until used. Loaded HLA monomers were subsequently coated (0.03-2 μg/well) onto 48-well plates in 100 μl PBS for 4 h at 37° C. The HLA/peptide solution was subsequently flicked of the plate and specific T cells (5×104) and anti-CD28 (1 μg/well) were added to the monomer-coated wells and incubated for 48 h at 37° C. before collecting cells.
# As positive controls, anti-mouse anti-CD3 (BioLegend #100314), anti-CD28 (BioLegend #101112) were used.
# PD1 expression on 58−/− cells was assessed using anti-mouse PD-1 PE-Cy7 antibody, while NFAT activation was studied using assessment of GFP expression following cell stimulation. Human CD4+ametrine+ viable singlets were used as population to look for expression of NFAT and PD1.
Sequence,TCR-dependent NFAT mediated activation of T cells,TCR-dependent PD1 expression
GGFRAXPAKAAAT (GGFRA[Cit]PAKAAAT; ends and bridges not checked) [FibF71X74],equally capable of triggering T cell activation as the original citrullinated peptide,equally capable of triggering T cell activation as the original citrullinated peptide
"GGFRAQPAKAAAT [FibF71Q74, fibrinogen 69-81 mimic, glutamine in position 74 and phenylalanine in position 71]",equally capable of triggering T cell activation as the original citrullinated peptide,equally capable of triggering T cell activation as the original citrullinated peptide
"GGYRAQPAKAAAT [FibQ74, fibrinogen 69-81 mimic, a glutamine in position 74]",equally capable of triggering T cell activation as the original citrullinated peptide,equally capable of triggering T cell activation as the original citrullinated peptide
